{"source": "paper PMC3880807", "about": "(ACS chemical biology, 2013)", "target": "Src (Gallus gallus, UniProt P00523, Y527F)", "test": "In vitro activity assay with Src phospho-isoforms", "assay_type": "biochemical", "settings": "npY416-Src vs pY416-Src", "data": [{"smiles": "CNC(=O)c1cc(Oc2ccc(NC(=O)Nc3cc(C(C)(C)C)nn3-c3ccc4ncccc4c3)c(F)c2)ccn1", "note": "[compound 1, Rebastinib]", "values": [{"measurement": "Fold-difference in Ki, preference for npY416-Src over pY416-Src", "result": "~ 11 fold"}]}]}
